Data published in patent US20060216761A1, “Isolation material for hormone disrupting substance, method of concentrating and method of clean-up” (priority 2002, published 2006).

B1: EE2-3: anti-ethynyl estradiol monoclonal antibody from mouse hybridoma EE2-3 line (antibody)
VH: VTLKXSGPGILQPSQTLSLTCSFSGFSLSTSDLGVSWIRQTSGKGLEWLAHIYWNDDKYYNPSLKSRLTISKDTSGNLVFLRITSVDTDDSATYYCARSPLYGSLTYWGQGTLVTVSA
light: DIVMSQSPSSLAVSVGEKVTLNCKSSQSLLNSRTRKNYLAWYQQKPGQSPKLLISWASTRESGVPDRFTGSGSGTDFTLTISSVQAEDLAVYYCNQFYYLLTFGAGTKLELKRADAAPTVSIFPPSSEQLTSGGASVVCFLNNFYPKDINVKWKIDGSERQNGVLNSWTDQDSKDSTYSMSSTLTLTKDEYERHNSYTCEATHKTSTSPIVKSFNRNE
modifications: Mouse; (5)..(5) Xaa = unknown for each location where they appear
notes: anti-ethynyl estradiol monoclonal antibody from mouse hybridoma EE2-3 line
B2: EE2-8-18: anti-ethynyl estradiol monoclonal antibody from mouse hybridoma EE2-8-18 line (antibody, V domains shown)
VH: VQVKESGPGLVAPSQSLSISCTVSGFPLTSYGVQWVRQPPGKGLEWLGVIWPGGSTNYNSALMSRLSISKDNSKSQVFLKMNSLQTDDTAMYYCAGWFQTGPRLFAYWGQGTLVTVSA
VL: DIQMTQSPASLSASVGETVTITCRASENIHSYLAWYQQKQGKSPQVLVYNAKTLGEGVSSRFSGSGSGTQFSLKINSLQPEDFGTYYCQNHYGSPWTFGGGTKLESK
modifications: Mouse
notes: anti-ethynyl estradiol monoclonal antibody from mouse hybridoma EE2-8-18 line

test system: not listed separately; test: Resistance of monoclonal antibody to a detergent; set-up: species or system mouse; settings: compared with antibody from EE2-277 line

Question: With B1 as the molecule, how does the “resistance to a detergent of the antibody” value read?
Answer: the same as that of one from EE2-277 line

Question: With B2 as the molecule, how does the “resistance to a detergent of the antibody” value read?
Answer: slightly lower than that of one from EE2-277 line

test system: purified anti-resin plasticizer antibody; test: Cross reactivity of purified anti-resin plasticizer antibody; type: binding, rabbit; settings: assuming DBP=100%

Question: For `CCCCCCOC(=O)c1ccccc1C(=O)OCCCCCC` [Dihexyl phthalate], which Cross reactivity is on record?
Answer: 4%

Question: For `CCCCOC(=O)c1ccccc1C(=O)OCCCC` [Dibutyl phthalate], which Cross reactivity is on record?
Answer: 100%

Question: Which Cross reactivity does the source give for `O=C(OC1CCCCC1)c1ccccc1C(=O)OC1CCCCC1` [Dicyclohexyl phthalate] here?
Answer: <1%

Question: Which Cross reactivity does the source give for `CC(C)CCCCCCOC(=O)c1ccccc1C(=O)OCCCCCCC(C)C` [Diisononyl phthalate] here?
Answer: <1%

Question: Which Cross reactivity does the source give for `CCCCC(CC)COC(=O)c1ccccc1C(=O)OCC(CC)CCCC` (stereo not drawn) [Diethylhexyl phthalate (DEHP), Diethylhexyl phthalate] here?
Answer: <1%

Question: Which Cross reactivity does the source give for `CCCCC(CC)COC(=O)CCCCC(=O)OCC(CC)CCCC` (stereo not drawn) [Diethylhexyl adipate] here?
Answer: <1%

Question: Which Cross reactivity does the source give for `CCCOC(=O)c1ccccc1C(=O)OCCC` [Dipropyl phthalate] here?
Answer: 27%

Question: With `CCOC(=O)c1ccccc1C(=O)OCC` [Diethyl phthalate] as the molecule, how does the Cross reactivity read?
Answer: 7%

Question: For `CCCCCOC(=O)c1ccccc1C(=O)OCCCCC` [Dipentyl phthalate], which Cross reactivity is on record?
Answer: 10%

test system: purified anti-resin component antibody; test: Cross reactivity of purified anti-resin component antibody; type: binding, rabbit; settings: assuming BPA=100%
Protocol: Also, even in the BPA-2-KLH-immunized rabbits, sixth immunization (immunization number 6) led to an equilibrium of antibody titer, and 178 mg of purified anti-resin component antibody was obtained from one rabbit. When assuming BPA=100% for this purified antibody, cross reactivity was as shown in Table 12; as specificity for BPA was high, it was proven that BPA only can be specifically concentrated or cleaned up.

Question: Which Cross reactivity does the source give for `CC(CCC(=O)O)(c1ccc(O)cc1)c1ccc(O)cc1` [4,4′-Bis(p-hydroxyphenyl)pentanoic acid] here?
Answer: <0.4%

Question: For `CC(CO)(c1ccc(O)cc1)c1ccc(O)cc1` [2,2′-Bis(4-hydroxyphenyl)-1-propanol], which Cross reactivity is on record?
Answer: 9.3%

Question: For `Oc1ccc(Oc2ccc(O)cc2)cc1` [4,4′-Dihydroxydiphenyl ether], which Cross reactivity is on record?
Answer: <0.4%

Question: Which Cross reactivity does the source give for `CC(=O)Oc1ccc(C(C)(C)c2ccc(OC(C)=O)cc2)cc1` [BPA diacetate] here?
Answer: 11.1%

Question: Which Cross reactivity does the source give for `Oc1ccc(Cc2ccc(O)cc2)cc1` [Bis(p-hydroxyphenyl)methane] here?
Answer: 1.0%

Question: For `CC(c1ccc(O)cc1)c1ccc(O)cc1` [Bisphenol E (BPE), Bisphenol E], which Cross reactivity is on record?
Answer: 6.6%

Question: With `O=S(=O)(c1ccc(OCCO)cc1)c1ccc(OCCO)cc1` [Bis[4-(2-hydroxyethoxy)phenyl]sulfone] as the molecule, how does the Cross reactivity read?
Answer: <0.4%

Question: Which Cross reactivity does the source give for `CC(C)(c1ccc(OCC2CO2)cc1)c1ccc(OCC2CO2)cc1` (stereo not drawn) [BPA diglycidyl ether] here?
Answer: <0.4%

Question: For `CC(C)(c1ccc(O)cc1)c1ccc(O)cc1` [Bisphenol A (BPA), Bisphenol A], which Cross reactivity is on record?
Answer: 100%

Question: For `O=C(c1ccc(O)cc1)c1ccc(O)cc1` [p,p′-Dihydroxybenzophenone], which Cross reactivity is on record?
Answer: <0.4%

Question: With `C=C(C)C(=O)Oc1ccc(C(C)(C)c2ccc(OC(=O)C(=C)C)cc2)cc1` [BPA dimethacrylate] as the molecule, how does the Cross reactivity read?
Answer: 2.7%

Question: Which Cross reactivity does the source give for `O=S(=O)(c1ccc(O)cc1)c1ccc(O)cc1` [Bisphenol S (BPS), Bisphenol S] here?
Answer: <0.4%

Question: Which Cross reactivity does the source give for `CC(O)(Cc1ccc(O)cc1)c1ccc(O)cc1` (stereo not drawn) [1,2-Bis(4-hydroxyphenyl)-2-propanol] here?
Answer: <0.4%

Question: Which Cross reactivity does the source give for `CCC(C)(c1ccc(O)cc1)c1ccc(O)cc1` [Bisphenol B (BPB), Bisphenol B] here?
Answer: 22.5%

test system: purified anti-estrogen polyclonal antibody; test: Cross reactivity of purified anti-estrogen polyclonal antibody; type: binding, rabbit; settings: assuming E2=100%
Protocol: In the E3-16G-KLH-immunized rabbits, third immunization (immunization number 3) led to an equilibrium of antibody titer, and 168 mg of purified anti-estrogen polyclonal antibody was obtained from one rabbit.

Question: With `Oc1ccc(Cl)cc1Cl` [2,4-Dichlorophenol (2,4DCP), 2,4-Dichlorophenol] as the molecule, how does the Cross reactivity read?
Answer: <0.02%

Question: For `C[C@]12CC[C@@H]3c4ccc(O)cc4CC[C@H]3[C@@H]1CC[C@@H]2O` [17β-Estradiol (E2), 17β-Estradiol], which Cross reactivity is on record?
Answer: 100%

Question: Which Cross reactivity does the source give for `CCCCC(CC)COC(=O)c1ccccc1C(=O)OCC(CC)CCCC` (stereo not drawn) [Diethylhexyl phthalate (DEHP), Diethylhexyl phthalate] here?
Answer: <0.02%

Question: With `C#C[C@]1(O)CC[C@H]2[C@@H]3CCc4cc(O)ccc4[C@H]3CC[C@@]21C` [Ethynylestradiol (EE2), Ethynylestradiol] as the molecule, how does the Cross reactivity read?
Answer: 7%

Question: With “Nonylphenol ethoxylate [Nonylphenol ethoxylate (NP10EO)]” as the molecule, how does the Cross reactivity read?
Answer: <0.02%

Question: For t-Nonylphenol [t-Nonylphenol (NP)], which Cross reactivity is on record?
Answer: <0.02%

Question: Which Cross reactivity does the source give for `CC(C)(c1ccc(O)cc1)c1ccc(O)cc1` [Bisphenol A (BPA), Bisphenol A] here?
Answer: <0.02%

Question: Which Cross reactivity does the source give for `C[C@]12CC[C@@H]3c4ccc(O)cc4CC[C@H]3[C@@H]1C[C@@H](O)[C@@H]2O` [Estriol (E3), Estriol] here?
Answer: 69%
